# In patent publication US20210138006A1, “Systems, Methods, and Compositions for Treating or Preventing Bacterial Infection and for Reducing or Preventing Bacterial Overpopulation” (BRIGHAM YOUNG UNIVERSITY, priority 2018, published 2021):
# Test system: honeybees (Apis mellifera)
# Assay type: in vivo
# Conditions: after fall inspection
# From the text: Treatment Study: This study provides disclosure relating to the potential effectiveness of using phages, such as PL phages, when treating healthy beehives that are not at risk for AFB.
# This combined not-at-risk preventative and safety treatment study using PL phages occurred when 96 beehives were observed and assigned to one of three groups to either be control hives, hives treated preventative PL phages, or hives treated with preventative Tylan antibiotic.
# Study Design: Test animals—A total of 96 colonies (hives) of honeybees (Apis mellifera) were previously established in two near-by apiaries. Each of the colonies had to meet the following four criteria: a viable laying queen, contain approximately 40,000 or more adult worker bees, have uncapped brood, and have no visible signs of American Foulbrood. All 96 hives met the criteria and were included in the study.
# Route of administration: Oral.
# Treatment: PL phage cocktail diluted in sugar water.
# Objective and design: The objective was to determine the comparative health of beehives left without a treatment to hives prophylactically treated with PL phages or Tylan antibiotic for the prevention of AFB in a longitudinal study.
# All 96 beehives were inspected in spring and fall using a 3-brood rack approach, wherein observation of three full brood racks constituted a complete inspection to look for AFB. Hives that looked unusual were inspected beyond the 3-brood racks. For each hive observation upon signs of AFB, the colonies were to be rated on a 0-3 scale based on a modification of the method proposed by Hitchcock et al. (1970). Frames were rated as follows:
# For each hive inspected, other observations were also noted, such as signs of chalkbrood, European Foulbrood (EFB), apparent mite infestation, queen health (based on laying patterns, etc.), other obvious disorders, and any colony loss.
# Results: AFB was not detected in any hive in any group throughout the study. […] For this study, a hive was counted as “diseased” if it had chalkbrood, had European Foulbrood, or struggled to thrive. […]
structure (smiles),measurement,setting,value
CC[C@H]1OC(=O)C[C@@H](O)[C@H](C)[C@@H](O[C@@H]2O[C@H](C)[C@@H](O[C@H]3C[C@@](C)(O)[C@@H](O)[C@H](C)O3)[C@H](N(C)C)[C@H]2O)[C@@H](CC=O)C[C@@H](C)C(=O)/C=C/C(C)=C/[C@@H]1CO[C@@H]1O[C@H](C)[C@@H](O)[C@@H](OC)[C@H]1OC [Tylan],% Healthy Hives (positive health survival rate),"32 hives per group, control 90.6%",62.5%
same,Diseased or Dead Hives,"of 32 hives per group, control 3",12
same,hives remained healthy,"of 32 hives per group, control 29",20
